Data: ChEMBL document CHEMBL6078645, “Expanding the Solvent/Protein Region Occupation of the Non-Nucleoside Reverse Transcriptase Inhibitor Binding Pocket for Improved Broad-Spectrum Anti-HIV-1 Efficacy: from Rigid Phenyl-Diarylpyrimidines to Flexible Hydrophilic Piperidine-Diarylpyrimidines” (J Med Chem, 2024)
In brackets after ≈: the same amount, converted by molar mass. Several values for one entry are separate records, joined by “and”; a condition that tells them apart may be missing. Equal values may be shown once.

Tests used:
[1] = test system: Human immunodeficiency virus 1; experiment: Antiviral activity against HIV-1 harboring Y188L mutant infected in human MT4 cells assessed as protection against virus-induced cytopathic effect incubated for 5 days by MTT assay; type: functional, organism-based
[2] = test system: Human immunodeficiency virus 1; experiment: Antiviral activity against HIV-1 harboring RES056 mutant infected in human MT4 cells assessed as protection against virus-induced cytopathic effect incubated for 5 days by MTT assay; type: functional, organism-based
[3] = molecular target: T1, Human immunodeficiency virus type 1 reverse transcriptase (Human immunodeficiency virus 1, UniProt Q72547); experiment: Inhibition of wildtype recombinant HIV-1 Reverse transcriptase incubated for 40 mins by spectrofluorometric analysis
[4] = test system: MT4; experiment: (§1) Cytotoxicity against human MT4 cells assessed as reduction in cell viability incubated for 5 days by MTT assay; type: toxicity, cell-based; details: mt4, 120 h, 120 h, time 5 day
[5] = test system: Human immunodeficiency virus 1; experiment: Antiviral activity against HIV-1 harboring F227L/V106A double mutant infected in human MT4 cells assessed as protection against virus-induced cytopathic effect incubated for 5 days by MTT assay; type: functional, organism-based
[6] = test system: Human immunodeficiency virus 1; experiment: Antiviral activity against wild type HIV-1 IIIB infected in human MT4 cells assessed as protection against virus-induced cytopathic effect incubated for 5 days by MTT assay; type: functional, organism-based
[7] = Selectivity index, ratio of CC50 for cytotoxicity against human MT4 cells assessed as reduction in cell viability to EC50 for antiviral activity against wild type HIV-1 IIIB infected in human MT4 cells assessed as protection against virus-induced cytopathic effect; type: toxicity, cell-based; details: for selectivity ratio: MT4 cells, read-out: Ratio CC50/EC50
[8] = as §1; type: toxicity, cell-based; details: MT4 cells, time 5 day
[9] = molecular target: CYP2C9 (Homo sapiens, UniProt P11712); experiment: Inhibition of CYP2C9 in human liver microsome preincubated with compound for 10 minutes followed NADPH addition and measured after 15 mins by LC-MS/MS analysis; type: ADME, microsomes; details: human, human liver microsomes
Sequence of CYP2C9 (P11712 whole entry): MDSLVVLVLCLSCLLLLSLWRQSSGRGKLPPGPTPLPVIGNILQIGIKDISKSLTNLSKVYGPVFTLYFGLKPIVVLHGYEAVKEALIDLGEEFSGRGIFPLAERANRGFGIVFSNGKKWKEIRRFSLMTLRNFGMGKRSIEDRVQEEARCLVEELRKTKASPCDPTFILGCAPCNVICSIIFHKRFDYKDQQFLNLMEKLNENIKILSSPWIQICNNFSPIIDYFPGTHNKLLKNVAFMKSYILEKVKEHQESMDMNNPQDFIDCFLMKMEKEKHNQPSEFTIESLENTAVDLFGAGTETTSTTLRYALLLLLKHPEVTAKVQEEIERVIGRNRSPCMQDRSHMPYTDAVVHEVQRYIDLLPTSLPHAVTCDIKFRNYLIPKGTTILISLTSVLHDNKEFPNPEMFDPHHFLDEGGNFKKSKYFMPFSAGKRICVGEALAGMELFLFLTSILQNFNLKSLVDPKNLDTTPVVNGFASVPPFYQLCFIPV

[10] = test system: Human immunodeficiency virus 1; experiment: Antiviral activity against HIV-1 harboring K103N mutant infected in human MT4 cells assessed as protection against virus-induced cytopathic effect incubated for 5 days by MTT assay; type: functional, organism-based; details: Human immunodeficiency virus 1, MT4, 120 h
[11] = molecular target: T2, CYP1A2 (Homo sapiens, UniProt P05177); experiment: Inhibition of CYP1A2 in human liver microsome preincubated with compound for 10 minutes followed NADPH addition and measured after 15 mins by LC-MS/MS analysis; type: ADME, microsomes; details: human, human liver microsomes
T2 sequence (P05177 whole entry): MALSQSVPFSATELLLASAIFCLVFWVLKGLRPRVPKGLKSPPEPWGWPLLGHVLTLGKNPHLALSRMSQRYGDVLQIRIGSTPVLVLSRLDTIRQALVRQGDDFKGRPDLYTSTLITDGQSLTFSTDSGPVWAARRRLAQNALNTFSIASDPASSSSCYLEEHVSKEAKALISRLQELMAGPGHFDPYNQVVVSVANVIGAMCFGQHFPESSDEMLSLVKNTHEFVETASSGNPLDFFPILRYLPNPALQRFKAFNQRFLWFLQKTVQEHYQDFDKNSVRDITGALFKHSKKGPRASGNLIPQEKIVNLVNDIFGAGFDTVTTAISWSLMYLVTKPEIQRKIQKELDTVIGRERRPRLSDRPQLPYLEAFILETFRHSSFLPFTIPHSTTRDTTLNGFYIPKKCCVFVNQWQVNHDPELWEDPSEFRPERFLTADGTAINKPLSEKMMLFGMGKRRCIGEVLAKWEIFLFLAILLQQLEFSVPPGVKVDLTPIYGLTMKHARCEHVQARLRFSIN

[12] = molecular target: CYP2D6 (Homo sapiens, UniProt P10635); experiment: Inhibition of CYP2D6 in human liver microsome preincubated with compound for 10 minutes followed NADPH addition and measured after 15 mins by LC-MS/MS analysis; type: ADME, microsomes; details: human, human liver microsomes
Sequence of CYP2D6 (P10635 whole entry): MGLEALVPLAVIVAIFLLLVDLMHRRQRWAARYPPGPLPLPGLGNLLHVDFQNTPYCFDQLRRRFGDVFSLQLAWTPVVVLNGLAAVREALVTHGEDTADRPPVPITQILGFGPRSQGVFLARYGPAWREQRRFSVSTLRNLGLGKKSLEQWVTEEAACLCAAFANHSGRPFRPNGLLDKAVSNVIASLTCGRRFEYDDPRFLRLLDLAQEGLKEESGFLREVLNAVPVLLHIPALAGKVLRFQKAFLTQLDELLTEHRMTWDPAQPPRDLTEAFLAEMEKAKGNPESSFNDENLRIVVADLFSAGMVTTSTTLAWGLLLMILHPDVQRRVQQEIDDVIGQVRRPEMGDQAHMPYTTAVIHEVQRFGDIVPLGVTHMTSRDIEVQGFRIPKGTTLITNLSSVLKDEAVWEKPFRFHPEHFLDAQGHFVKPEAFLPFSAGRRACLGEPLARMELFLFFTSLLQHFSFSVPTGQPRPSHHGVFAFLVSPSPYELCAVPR

[13] = molecular target: Cytochrome P450 2C19 (Homo sapiens, UniProt P33261); experiment: Inhibition of CYP2C19 in human liver microsome preincubated with compound for 10 minutes followed NADPH addition and measured after 15 mins by LC-MS/MS analysis; type: ADME, microsomes
Sequence of Cytochrome P450 2C19 (P33261 whole entry): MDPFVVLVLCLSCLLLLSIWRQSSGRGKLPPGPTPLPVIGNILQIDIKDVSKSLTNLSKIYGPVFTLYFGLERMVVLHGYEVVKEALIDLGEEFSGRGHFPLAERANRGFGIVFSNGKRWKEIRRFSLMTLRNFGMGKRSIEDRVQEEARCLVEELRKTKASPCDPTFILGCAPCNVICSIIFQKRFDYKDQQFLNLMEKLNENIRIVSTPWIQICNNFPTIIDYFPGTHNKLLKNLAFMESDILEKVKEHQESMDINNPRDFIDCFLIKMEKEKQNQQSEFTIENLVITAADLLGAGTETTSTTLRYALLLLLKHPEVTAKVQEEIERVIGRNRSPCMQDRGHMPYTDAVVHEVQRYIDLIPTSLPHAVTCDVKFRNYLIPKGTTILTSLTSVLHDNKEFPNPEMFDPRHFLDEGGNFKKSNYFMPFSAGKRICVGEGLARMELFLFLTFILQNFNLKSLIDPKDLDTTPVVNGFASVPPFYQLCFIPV

[14] = test system: Human immunodeficiency virus 1; experiment: Antiviral activity against HIV-1 harboring E138K mutant infected in human MT4 cells assessed as protection against virus-induced cytopathic effect incubated for 5 days by MTT assay; type: functional, organism-based; details: Human immunodeficiency virus 1, MT4, 120 h
[15] = molecular target: T1, Human immunodeficiency virus type 1 reverse transcriptase; experiment: Inhibition of HIV-1 reverse transcriptase
[16] = molecular target: T3, CYP3A4 (Homo sapiens, UniProt P08684); experiment: Inhibition of CYP3A4 in human liver microsome using testosterone as substrate preincubated with compound for 10 minutes followed NADPH addition and measured after 15 mins by LC-MS/MS analysis; type: ADME, microsomes; details: human, human liver microsomes, probe testosterone
T3 sequence (P08684 whole entry): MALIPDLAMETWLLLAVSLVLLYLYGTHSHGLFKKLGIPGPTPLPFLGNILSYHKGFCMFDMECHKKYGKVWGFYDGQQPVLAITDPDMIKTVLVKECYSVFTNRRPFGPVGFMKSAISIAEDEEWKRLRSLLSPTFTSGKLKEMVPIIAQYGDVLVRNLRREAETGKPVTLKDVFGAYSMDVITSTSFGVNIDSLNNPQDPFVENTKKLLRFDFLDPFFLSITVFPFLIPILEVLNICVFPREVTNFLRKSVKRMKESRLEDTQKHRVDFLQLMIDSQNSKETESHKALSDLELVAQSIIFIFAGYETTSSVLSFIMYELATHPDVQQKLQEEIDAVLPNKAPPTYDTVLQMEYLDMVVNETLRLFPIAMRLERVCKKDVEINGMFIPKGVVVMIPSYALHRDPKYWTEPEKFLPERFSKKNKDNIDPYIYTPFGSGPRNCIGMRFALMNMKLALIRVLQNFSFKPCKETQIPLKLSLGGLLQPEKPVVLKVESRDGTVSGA

[17] = molecular target: T3, CYP3A4; experiment: Inhibition of CYP3A4 in human liver microsome using midazolam as substrate preincubated with compound for 10 minutes followed NADPH addition and measured after 15 mins by LC-MS/MS analysis; type: ADME, microsomes; details: human, human liver microsomes, probe midazolam
[18] = test system: Human immunodeficiency virus 1; experiment: Antiviral activity against HIV-1 harboring L100I mutant infected in human MT4 cells assessed as protection against virus-induced cytopathic effect incubated for 5 days by MTT assay; type: functional, organism-based; details: Human immunodeficiency virus 1, MT4, 120 h
[19] = test system: Human immunodeficiency virus 1; experiment: Antiviral activity against HIV-1 harboring Y181C mutant infected in human MT4 cells assessed as protection against virus-induced cytopathic effect incubated for 5 days by MTT assay; type: functional, organism-based; details: Human immunodeficiency virus 1, MT4, 120 h
[20] = Solubility of compound in phosphate buffer at pH 7.4 incubated for 24 hrs by HPLC analysis; type: physicochemical
[21] = Solubility of compound in phosphate buffer at pH 7 incubated for 24 hrs by HPLC analysis; type: physicochemical
[22] = Solubility of compound in phosphate buffer at pH 2 incubated for 24 hrs by HPLC analysis; type: physicochemical
[23] = Solubility of compound incubated for 24 hrs by HPLC analysis; type: physicochemical
[24] = Human immunodeficiency virus 1, MT4, 120 h
[25] = Human immunodeficiency virus 1, IIIB, MT4, 120 h

| Structure (SMILES) | EC50 [1, 24] [µM] | IC50 [3] [µM] | EC50 [5, 24] [µM] | EC50 [6, 25] [µM] | selectivity ratio [7] | EC50 [2, 24] [µM] | CC50 at 120 h [8] [µM] | EC50 [10] [µM] | EC50 [14] [µM] | EC50 [15] [µM] | EC50 [18] [µM] | EC50 [19] [µM] | also measured |
| --- | --- | --- | --- | --- | --- | --- | --- | --- | --- | --- | --- | --- | --- |
| Cc1cc(-c2ccncc2)cc(C)c1Oc1nc(NC2CCN(Cc3ccc(S(=O)(=O)NCCO)cc3)CC2)ncc1CO | 0.466 | 0.186 | 0.285 | 0.028 | 5080 | – | – | – | – | – | – | – | EC50 ([1]; mt4): 0.919 µM; EC50 ([2]; mt4): 1.23 µM and 2.66 µM; CC50 [4]: > 210 µM; EC50 ([5]; mt4): 0.403 µM; EC50 ([6]; mt4): 0.036 µM; Ratio CC50/EC50 ([7]; mt4): > 5837 |
| Cc1cc(-c2ccncc2)cc(C)c1Oc1nc(NC2CCN(Cc3ccc(C(N)=O)cc3)CC2)ncc1CO | 0.21 | 0.183 | 0.229 | 0.009 | > 24800 | 1.47 | > 232 | – | – | – | – | – | – |
| N#Cc1ccc(Nc2ncc(CO)c(Oc3c(F)cc(-c4ccc(C#N)cc4)cc3F)n2)cc1 | 0.161 | – | 1.1 | – | 256000 | 0.969 | 226 | 0.002 | 0.004 | 0.001 | 0.008 | 0.015 | IC50 at 15 min [9]: > 25 µM; IC50 at 15 min [11]: > 25 µM; IC50 at 15 min [12]: > 25 µM; IC50 [13]: 14 µM; IC50 at 15 min [16]: > 25 µM; IC50 at 15 min [17]: > 25 µM |
| Cc1cc(-c2ccc(C#N)cc2)cc(C)c1Oc1nc(NC2CCN(Cc3ccc(C#N)cc3)CC2)ncc1CO | 0.059 | 0.297 | 0.071 | – | 684 | 0.294 | 4.83 | 0.006 | 0.021 | 0.007 | 0.009 | 0.022 | – |
| Cc1cc(C#N)cc(C)c1Oc1nc(Nc2ccc(C#N)cc2)nc(N)c1Br [ETRAVIRINE] | – | – | – | – | – | 0.037 | > 4.61 | – | – | – | 0.006 | – | solubility at 24 h [20]: < 1 µg/mL; solubility at 24 h [21]: < 1 µg/mL; solubility at 24 h [22]: 127 µg/mL (≈ 292 µM); solubility at 24 h [23]: < 1 µg/mL |
| Cc1cc(-c2ccncc2)cc(C)c1Oc1nc(NC2CCN(Cc3ccc(C(=O)NCCO)cc3)CC2)ncc1CO | 2.01 | 0.222 | 2.83 | 0.039 | > 5500 | 5.68 | > 215 | – | – | – | – | – | – |
| Cc1cc(-c2ccc(C#N)cc2)cc(C)c1Oc1nc(NC2CCN(Cc3ccc(C(=O)NCCCO)cc3)CC2)ncc1CO | 0.114 | 0.463 | 0.055 | – | 2630 | 0.272 | 17.3 | 0.007 | 0.026 | 0.007 | 0.01 | 0.029 | – |
| COCCNS(=O)(=O)c1ccc(CN2CCC(Nc3ncc(CO)c(Oc4c(C)cc(-c5ccncc5)cc4C)n3)CC2)cc1 | 0.048 | – | 0.122 | 0.009 | 5130 | 0.157 | 45.9 | 0.007 | 0.048 | – | 0.009 | 0.039 | – |
| Cc1cc(-c2ccc(C#N)cc2)cc(C)c1Oc1nc(NC2CCN(Cc3ccc(CO)cc3)CC2)ncc1CO | 0.056 | – | 0.051 | 0.009 | 1980 | 0.307 | 18.4 | – | – | – | – | – | – |
